Test results taken from patent publication US20220235065A1 (Epizyme, Inc., priority 2016, published 2022).

Columns and labels:
[1] = system: H3K9me2 in MDA-MB-231 cells; assay: MDA-MB-231 H3K9me2 in-cell western assay; type: cell-based; settings: Homo sapiens, read-out: EHMT2 ICW (IC50 μM)
Excerpt: MDA-MB-231 cell line was purchased from ATCC (Manassas, Va., USA). RPMI/Glutamax medium, Penicillin-Streptomycin, Heat Inactivated Fetal Bovine Serum, and D-PBS were purchased from Life Technologies (Grand Island, N.Y., USA). Odyssey blocking buffer, 800CW goat anti-mouse IgG (H+L) antibody, and Licor Odyssey Infrared Scanner were purchased from Licor Biosciences, Lincoln, Nebr., USA. H3K9me2 mouse monoclonal antibody (Cat #1220) was purchased from Abcam (Cambridge, Mass., USA). 16% Paraformaldehyde was purchased from Electron Microscopy Sciences, Hatfield, Pa., USA). MDA-MB-231 cells were maintained in complete growth medium (RPMI supplemented with 10% v/v heat inactivated fetal bovine serum) and cultured at 37° C. under 5% CO2. UNC0638 was purchased from Sigma-Aldrich (St. Louis, Mo., USA).
General Procedure for MDA-MB-231 HEK9me2 In-Cell Western Assay.
Compound (100 nL) was added directly to 384-well cell plate. MDA-MB-231 cells (ATCC) were seeded in assay medium (RPMI/Glutamax supplemented with 10% v/v heat inactivated fetal bovine serum and 1% Penicillin/Streptomycin, Life Technologies) at a concentration of 3,000 cells per well to a Poly-D-Lysine coated 384-well cell culture plate with 50 μL per well. Plates were incubated at 37° C., 5% CO2 for 48 hours (BD Biosciences 356697). Plates were incubated at room temperature for 30 minutes and then incubated at 37° C., 5% CO2 for additional 48 hours. After the incubation, 50 μL per well of 8% paraformaldehyde (Electron Microscopy Sciences) in PBS was added to the plates and incubated at room temperature for 20 minutes. Plates were transferred to a Biotek 406 plate washer and washed 2 times with 100 μL per well of wash buffer (1×PBS containing 0.3% Triton X-100 (v/v)). Next, 60 μL per well of Odyssey blocking buffer (Licor Biosciences) was added to each plate and incubated for 1 hour at room temperature. Blocking buffer was removed and 20 μL of monoclonal primary antibody α-H3K9me2 (Abcam) diluted 1:800 in Odyssey buffer with 0.1% Tween 20 (v/v) were added and plates were incubated overnight (16 hours) at 4° C. Plates were washed 5 times with 100 μL per well of wash buffer. Next 20 μL per well of secondary antibody was added (1:500 800CW […] anti-mouse IgG (H+L) antibody (Licor Biosciences), 1:1000 DRAQ5 (Cell Signaling Technology) in Odyssey buffer with 0.1% Tween 20 (v/v)) and incubated for 1 hour at room temperature. The plates were washed 5 times with 100 μL per well wash buffer then 2 times with 100 μL per well of water. Plates were allowed to dry at room temperature then imaged on a Licor Odyssey Infrared Scanner (Licor Biosciences) which measured integrated intensity at 700 nm and 800 nm wavelengths. Both 700 and 800 channels were scanned.
% Inhibition Calculation.
First, the ratio for each well was determined by
Each plate included fourteen control wells of DMSO only treatment (Minimum Inhibition) as well as fourteen control wells (background wells) for maximum inhibition treated with control compound UNC0638 (Background wells).
The average of the ratio values for each well was calculated and used to determine the percent inhibition for each test well in the plate. Control compound was serially diluted three-fold in DMSO for a total of 10 test concentrations beginning at 1 μM. Percent inhibition was calculated as: […]
IC50 curves were generated using triplicate wells per concentration of compound. The IC50 is the concentration of compound at which measured methylation is inhibited by 50% as interpolated from the dose response curves. IC50 values were calculated using a non-linear regression (variable slope-four parameter fit model) with by the following formula
where Top is fixed at 100% and Bottom is fixed to 0%, [I]=concentration of inhibitor, IC50=half maximal inhibitory concentration and n=Hill Slope.

EHMT1 = target: T1, EHMT1 (Homo sapiens, UniProt Q9H9B1); assay: EHMT1 PEP (EHMT1 peptide enzyme assay); type: biochemical; settings: peptide substrate enzyme assay
T1 sequence (Q9H9B1 1-1298): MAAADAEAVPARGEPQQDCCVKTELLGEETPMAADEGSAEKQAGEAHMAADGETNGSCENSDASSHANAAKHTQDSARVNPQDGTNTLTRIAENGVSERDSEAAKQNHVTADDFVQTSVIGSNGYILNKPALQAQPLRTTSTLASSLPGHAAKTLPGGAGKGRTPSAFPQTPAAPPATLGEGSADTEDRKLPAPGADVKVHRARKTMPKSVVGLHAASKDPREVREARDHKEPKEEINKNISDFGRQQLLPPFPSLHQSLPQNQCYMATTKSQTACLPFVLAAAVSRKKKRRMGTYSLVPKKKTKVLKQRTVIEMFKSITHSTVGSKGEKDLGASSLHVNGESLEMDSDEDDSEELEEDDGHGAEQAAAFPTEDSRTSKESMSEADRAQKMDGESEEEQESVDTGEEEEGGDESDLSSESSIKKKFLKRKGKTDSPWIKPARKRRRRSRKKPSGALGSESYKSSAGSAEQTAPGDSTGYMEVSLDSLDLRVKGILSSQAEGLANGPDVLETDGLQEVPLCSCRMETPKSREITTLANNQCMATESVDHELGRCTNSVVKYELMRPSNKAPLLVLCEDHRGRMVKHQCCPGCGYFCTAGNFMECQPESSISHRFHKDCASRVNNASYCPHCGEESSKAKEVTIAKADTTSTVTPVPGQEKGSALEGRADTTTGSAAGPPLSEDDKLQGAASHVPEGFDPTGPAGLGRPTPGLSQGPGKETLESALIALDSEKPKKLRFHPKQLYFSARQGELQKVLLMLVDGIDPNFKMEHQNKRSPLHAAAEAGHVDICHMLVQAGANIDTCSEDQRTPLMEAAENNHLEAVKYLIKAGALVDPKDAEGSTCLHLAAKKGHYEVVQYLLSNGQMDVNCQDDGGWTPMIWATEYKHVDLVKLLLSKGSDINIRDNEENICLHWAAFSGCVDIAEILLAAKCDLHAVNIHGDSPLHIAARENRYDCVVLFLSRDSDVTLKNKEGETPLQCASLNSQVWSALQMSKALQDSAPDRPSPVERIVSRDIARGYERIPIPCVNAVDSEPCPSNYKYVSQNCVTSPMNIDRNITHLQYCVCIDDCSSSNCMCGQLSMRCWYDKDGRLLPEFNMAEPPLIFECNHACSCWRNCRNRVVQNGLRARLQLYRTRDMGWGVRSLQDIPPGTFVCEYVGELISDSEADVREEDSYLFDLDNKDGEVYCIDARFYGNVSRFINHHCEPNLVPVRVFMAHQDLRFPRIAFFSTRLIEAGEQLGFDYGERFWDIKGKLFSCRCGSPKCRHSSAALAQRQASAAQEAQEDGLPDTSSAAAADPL

Structure (SMILES) | IC50 [1] | IC50 (EHMT1)
CNc1cc(C)nc(Nc2ccc(OC)c(-n3cc(C(C)NC)nn3)c2)n1 (centres unmarked) [Compound 164] | 0.1 to 1 µM | 0.1 to 1 µM
CNc1nc2cc(-n3cc(CN(C)C)nn3)c(OC)cc2n1C [Compound 163] | 1 to 10 µM | 1 to 10 µM
CNc1cc(C)nc(Nc2ccc(OC)c(-n3cc4cncc(C)c4n3)c2)n1 [Compound 151] | 0.1 to 1 µM | 0.1 to 1 µM
CNCc1cnn(-c2cc(Nc3nccc(NC)n3)ccc2OC)c1 [Compound 181, N2-(4-methoxy-3-(4-((methylamino)methyl)-1H-pyrazol-1-yl)phenyl)-N4-methylpyrimidine-2,4-diamine] | 0.1 to 1 µM | < 0.1 µM
CNc1cc(C)nc(Nc2ccc(OC)c(-c3cn[nH]c3)c2)n1 [Compound 12, 2-N-[4-methoxy-3-(1H-pyrazol-4-yl)phenyl]-4-N,6-dimethylpyrimidine-2,4-diamine] | > 10 µM | > 10 µM
CNc1cc(C)nc(Nc2ccc(OC)c(-c3cc4ccncc4[nH]3)c2)n1 [Compound 157, N2-(4-methoxy-3-(1H-pyrrolo[2,3-c]pyridin-2-yl)phenyl)-N4,6-dimethylpyrimidine-2,4-diamine] | 0.1 to 1 µM | < 0.1 µM
CNCc1cnn(-c2cc3c(cc2OC)C2(CCC2)C(N)=N3)c1 [Compound 186] | 0.1 to 1 µM | < 0.1 µM
CNc1cc(C)nc(Nc2ccc(OC)c(-c3ccc4nc(C)[nH]c4c3)c2)n1 [Compound 155] | > 10 µM | > 10 µM
CNc1cc(C)nc(Nc2ccc(OC)c(-c3cc4cnccc4n3C)c2)n1 [Compound 158] | 0.1 to 1 µM | < 0.1 µM
CNCc1cn(-c2cc(Nc3nc(C)cc(NC)n3)ccc2OC)nn1 [Compound 159, N2-(4-methoxy-3-(4-((methylamino)methyl)-1H-1,2,3-triazol-1-yl)phenyl)-N4,6-dimethylpyrimidine-2,4-diamine] | 0.1 to 1 µM | < 0.1 µM
CNc1cc(C)nc(Nc2ccc(OC)c(-n3cc4cc(Br)ccc4n3)c2)n1 [Compound 148] | 1 to 10 µM | 0.1 to 1 µM
CNc1cc(C)nc(Nc2ccc(OC)c(-c3[nH]c4cnccc4c3C)c2)n1 [Compound 200, N2-(4-methoxy-3-(3-methyl-1H-pyrrolo[2,3-c]pyridin-2-yl)phenyl)-N4,6-dimethylpyrimidine-2,4-diamine] | < 0.1 µM | < 0.1 µM
CNc1ccnc(Nc2ccc(OC)c(-n3cnc(CN(C)C)c3)c2)n1 [Compound 170] | 0.1 to 1 µM | < 0.1 µM
CCNCc1cnn(-c2cc(Nc3nccc(NC)n3)ccc2OC)c1 [Compound 185] | 1 to 10 µM | 0.1 to 1 µM
CNc1cc(C)nc(Nc2ccc(OC)c(-c3ccc4cc(C)[nH]c4c3)c2)n1 [Compound 156] | 1 to 10 µM | > 10 µM

Second part, the molecule after the results:

IC50 [1] | IC50 (EHMT1) | Structure (SMILES)
> 10 µM | > 10 µM | CNc1cc(C)nc(Nc2ccc(C)c(C(=O)Nc3cccnc3)c2)n1 [Compound 239]
0.1 to 1 µM | < 0.1 µM | CNc1cc(C)nc(Nc2ccc(OC)c(-c3cnc4cc[nH]c4c3)c2)n1 [Compound 223]
> 10 µM | 0.1 to 1 µM | CNc1nc2cc(-c3cc4[nH]ccc4cn3)c(OC)cc2n1C [Compound 209]
0.1 to 1 µM | < 0.1 µM | CNc1cc(C)nc(Nc2ccc(OC)c(-c3cc4[nH]cc(F)c4cn3)c2)n1 [Compound 229]
0.1 to 1 µM | < 0.1 µM | CNC1=Nc2cc(-c3[nH]c4cnccc4c3Cl)c(OC)cc2C12CCC2 [Compound 216]
> 10 µM | 1 to 10 µM | COc1cc(NC2CCNCC2)ncc1-c1cc2[nH]ccc2cn1 [Compound 208]
> 10 µM | 1 to 10 µM | CNc1cc(C)nc(Nc2cnc(OC)c(-c3cc4ccncc4[nH]3)c2)n1 [Compound 204]
0.1 to 1 µM | < 0.1 µM | CNc1cc(C)nc(Nc2ccc(OC)c(-n3cc([C@H]4CCCN4)nn3)c2)n1 [Compound 213]
> 10 µM | 0.1 to 1 µM | CNc1cc(C)nc(Nc2ccc(OC)c(-c3cc4c(cn3)CC(=O)N4)c2)n1 [Compound 219]
1 to 10 µM | < 0.1 µM | COc1cc2c(cc1-c1cc3ccncc3[nH]1)N=C(N)C21CCC1 [Compound 202]
> 10 µM | > 10 µM | CNc1cc(C)nc(Nc2ccc(OC)c(-c3cc4cnoc4cn3)c2)n1 [Compound 235]
> 10 µM | 1 to 10 µM | COc1cc(NC2CCNCC2)ccc1-c1cc2[nH]ccc2cn1 [Compound 231]
> 10 µM | 1 to 10 µM | CNc1cc(C)nc(Nc2ccc(OC)c(-c3cc4ncncc4[nH]3)c2)n1 [Compound 201]
> 10 µM | > 10 µM | COc1cc(NC2CCNCC2)ccc1-c1cc(C2CC2)cnn1 [Compound 236]
0.1 to 1 µM | < 0.1 µM | CNc1cc(C)nc(Nc2ccc(OC)c(-n3cc([C@@H]4CCCN4)nn3)c2)n1 [Compound 212, (S)—N2-(4-methoxy-3-(4-(pyrrolidin-2-yl)-1H-1,2,3-triazol-1-yl)phenyl)-N4,6-dimethylpyrimidine-2,4-diamine]
0.1 to 1 µM | < 0.1 µM | CNc1cc(C)nc(Nc2ccc(C)c(-c3cc4ccncc4[nH]3)c2)n1 [Compound 241]
0.1 to 1 µM | < 0.1 µM | CNCc1cnn(-c2c(OC)ccc(Nc3nc(C)cc(NC)n3)c2OC)c1 [Compound 222]
0.1 to 1 µM | < 0.1 µM | CNC1=Nc2cc(-c3cc4ccncc4[nH]3)c(OC)cc2C12CCC2 [Compound 215]
1 to 10 µM | 1 to 10 µM | CNc1cc(C)nc(Nc2ccc(OC)c(-c3cc(C4CC4)ncn3)c2)n1 [Compound 232]
